This is an account of results in patent US20150157021A1, “NEW ANTIFUNGAL COMPOSITIONS” (DSM IP ASSETS B.V., priority 2012, published 2015).

What all share (type): in vivo
For one assay, the system named is Penicillium italicum. As to the kind of experiment: Treatment of wounded oranges inoculated with Penicillium italicum (Examples 7, 8). To be noted: 20° C. As for the experimental part: Ten fresh, organic oranges were used per treatment. Each orange was soaked in a 180 ppm hypochlorite solution for 10 minutes, then rinsed thoroughly with fresh tap water and dried. The peel of each disinfected orange was wounded once using a cork borer according to the method described by de Lapeyre de Bellaire and Dubois (1987). Subsequently, each wound was inoculated with 10 μl of a Penicillium italicum suspension containing 1×10^5 of spores/ml. After incubation for 3 hours at 20° C., each wound and the orange peel area of 1 cm around the wound was treated with in total 150 μl of a freshly prepared aqueous antifungal composition comprising either 500 ppm natamycin (DSM Food Specialties, Delft, The Netherlands), 800 ppm boscalid or both. Each antifungal composition also comprised 3.2% (w/w) beeswax, 0.8% (w/w) glycerol, 0.7% (w/w) polyoxyethylene sorbitan monostearate (Tween 60), 0.2% (w/w) polyoxyethylene sorbitan monooleate (Tween 80), 0.05% (w/w) methylhydroxyethyl-cellulose (MHEC), 0.03% (w/w) anti-foaming agent, 0.02% (w/w) xanthan gum, 0.02% (w/w) citric acid, 0.01% (w/w) lactic acid and 0.01% potassium sorbate. A composition without natamycin or boscalid was used as control. […] The treated oranges were incubated in a closed box in the dark at 20° C. and assessed on mould growth during a 17-day incubation period. The antifungal activity (in %) of the individual and combined active ingredients was determined by calculating the reduction in mould growth observed on the oranges treated with the antifungal composition in comparison to the mould growth on the oranges treated with the control composition according to the Colby method (Colby, 1967) described in Example 5.
The experiment was conducted as described in Example 7, except for the fact that each wounded and inoculated orange was treated with 150 μl of a freshly prepared aqueous antifungal composition comprising either 250 ppm natamycin (DSM Food Specialties, Delft, The Netherlands), 400 ppm boscalid or both. The treated oranges were incubated in a closed box in the dark at 20° C. and assessed on mould growth during a 18-day incubation period. During incubation, the treated oranges were assessed on mould growth according to the method described in Example 7.

Assay [1] relates to Botrytis cinerea. As to the kind of experiment: Treatment of wounded sweet peppers inoculated with Botrytis cinerea (Examples 9, 10). The note with it: 20° C., 400 ppm natamycin. As for the experimental part:
Ten fresh, organic sweet peppers were used per treatment. Each sweet pepper was soaked in a 180 ppm hypochlorite solution for 10 minutes, then rinsed thoroughly with fresh tap water and dried. The peel of each disinfected sweet pepper was wounded once using a cork borer according to the method described by de Lapeyre de Bellaire and Dubois (1987). Subsequently, each wound was inoculated with 10 μl of a Botrytis cinerea suspension containing 1×10^5 of spores/ml. After incubation for 3 hours at 20° C., each wound and the skin area of 0.5 cm around the wound was treated with in total 75 μl of a freshly prepared aqueous antifungal composition comprising either 400 ppm natamycin (DSM Food Specialties, Delft, The Netherlands), 600 ppm fenhexamid or both. Each antifungal composition also comprised 3.2% (w/w) beeswax, 0.8% (w/w) glycerol, 0.7% (w/w) polyoxyethylene sorbitan monostearate (Tween 60), 0.2% (w/w) polyoxyethylene sorbitan monooleate (Tween 80), 0.05% (w/w) methylhydroxyethyl-cellulose (MHEC), 0.03% (w/w) anti-foaming agent, 0.02% (w/w) xanthan gum, 0.02% (w/w) citric acid, 0.01% (w/w) lactic acid and 0.01% potassium sorbate. A composition without natamycin or fenhexamid was used as control.
The treated sweet peppers were incubated in a closed box in the dark at 20° C. and assessed on mould growth during a 26-day incubation period. The antifungal activity (in %) of the individual and combined active ingredients was determined by calculating the reduction in mould growth observed on the sweet peppers treated with the antifungal composition in comparison to the mould growth on the sweet peppers treated with the control composition according to the Colby method (Colby, 1967) described in Example 5.
The experiment was conducted as described in Example 9, except for the fact that each wounded and inoculated sweet pepper was treated with 75 μl of a freshly prepared aqueous antifungal composition comprising either 400 ppm natamycin (DSM Food Specialties, Delft, The Netherlands), 800 ppm carboxin or both. The treated sweet peppers were incubated in a closed box in the dark at 20° C. and assessed on mould growth during a 26-day incubation period. During incubation, the treated sweet peppers were assessed on mould growth according to the method described in Example 9.

The test system of assay [2] is Botrytis cinerea. As to the kind of experiment: Treatment of wounded strawberries inoculated with Botrytis cinerea (Examples 5, 6). To be noted: for Observed antifungal activity O (%): strawberries, 20° C. As for the experimental part:
Twelve fresh, organic strawberries were used per treatment. Each strawberry was wounded with a 0.5 mm long cut and each wound was inoculated with 10 μl of a Botrytis cinerea suspension containing 1×10^5 of spores/ml. After a 3-hour incubation period at 20° C., each strawberry was dipped individually for 1 minute in a freshly prepared aqueous antifungal composition comprising either 500 ppm natamycin (DSM Food Specialties, Delft, The Netherlands), 500 ppm fenhexamid or both. Each antifungal composition also comprised 3.2% (w/w) beeswax, 0.8% (w/w) glycerol, 0.7% (w/w) polyoxyethylene sorbitan monostearate (Tween 60), 0.1% (w/w) polyoxyethylene sorbitan monooleate (Tween 80), 0.05% (w/w) methylhydroxyethyl-cellulose (MHEC), 0.03% (w/w) anti-foaming agent, 0.02% (w/w) xanthan gum, 0.02% (w/w) citric acid, 0.01% (w/w) lactic acid and 0.01% potassium sorbate. A composition without natamycin or fenhexamid was used as control. […] The treated strawberries were incubated in a closed box in the dark at 20° C. for 11 days.
The expected antifungal activity (E in %) of the combined antifungal composition comprising both active ingredients was calculated according to the Colby equation (Colby, 1967): […]
wherein X and Y are the observed antifungal activities (in %) of the individual active ingredients X and Y, respectively.
The experiment was conducted as described in Example 5, except for the fact that each wounded and inoculated strawberry was dipped individually for 1 minute in a freshly prepared aqueous antifungal composition comprising either 250 ppm natamycin (DSM Food Specialties, Delft, The Netherlands), 250 ppm fenhexamid or both. The treated strawberries were incubated in a closed box in the dark at 20° C. for 10 days. During incubation, the treated strawberries were assessed on mould growth according to the two methods described in Example 5.

Take `O=C(Nc1ccccc1-c1ccc(Cl)cc1)c1cccnc1Cl` [Boscalid, boscalid]: the “Observed antifungal activity O (%)” value worked out at 54% in the assay with Penicillium italicum (7 days, 500 ppm natamycin, 800 ppm boscalid or both); 40% in the assay with Penicillium italicum (8 days, 500 ppm natamycin, 800 ppm boscalid or both); 39% in the assay on Penicillium italicum (9 days, 500 ppm natamycin, 800 ppm boscalid or both); 29% in the assay on Penicillium italicum (10 days, 500 ppm natamycin, 800 ppm boscalid or both); 35% with Penicillium italicum (11 days, 250 ppm natamycin, 400 ppm boscalid or both); 35% with Penicillium italicum (11 days, 500 ppm natamycin, 800 ppm boscalid or both). Besides, the “Observed antifungal activity O (%)” value is on record as 22% in the assay on Penicillium italicum (12 days, 250 ppm natamycin, 400 ppm boscalid or both); 18% in the assay with Penicillium italicum (12 days, 500 ppm natamycin, 800 ppm boscalid or both); 24% in the assay with Penicillium italicum (13 days, 250 ppm natamycin, 400 ppm boscalid or both); 20% in the assay with Penicillium italicum (13 days, 500 ppm natamycin, 800 ppm boscalid or both); 15% in the assay on Penicillium italicum (14 days, 250 ppm natamycin, 400 ppm boscalid or both); 8% in the assay on Penicillium italicum (14 days, 500 ppm natamycin, 800 ppm boscalid or both). Further, the “Observed antifungal activity O (%)” value with Penicillium italicum (15 days, 250 ppm natamycin, 400 ppm boscalid or both) was 10%; in the assay on Penicillium italicum (15 days, 500 ppm natamycin, 800 ppm boscalid or both), 8%; in the assay with Penicillium italicum (17 days, 250 ppm natamycin, 400 ppm boscalid or both), 6%; with Penicillium italicum (17 days, 500 ppm natamycin, 800 ppm boscalid or both) it was 0%; in the assay with Penicillium italicum (18 days, 250 ppm natamycin, 400 ppm boscalid or both), 1%.

Take `CC1=C(C(=O)Nc2ccccc2)SCCO1` [Carboxin, carboxin]: the “Observed antifungal activity O (%)” value in the assay with Botrytis cinerea [1] (17-19 days, 800 ppm carboxin or both) was found to be 67%; in the assay with Botrytis cinerea [1] (20-21 days, 800 ppm carboxin or both), 55%; in the assay with Botrytis cinerea [1] (22 days, 800 ppm carboxin or both), 45%; with Botrytis cinerea [1] (24 days, 800 ppm carboxin or both), 42%; in the assay on Botrytis cinerea [1] (25 days, 800 ppm carboxin or both), 41%; with Botrytis cinerea [1] (26 days, 800 ppm carboxin or both), 38%.

For the compound `CC1(C(=O)Nc2ccc(O)c(Cl)c2Cl)CCCCC1` [Fenhexamid, fenhexamid], the “Number of moulded strawberries/total number of 12 strawberries” value is on record as 11/12 in the assay on Botrytis cinerea [2] (Day 5, 20° C., 250 ppm natamycin, 250 ppm fenhexamid or both); 11 in the assay on Botrytis cinerea [2] (Day 5, 20° C., 250 ppm natamycin, 250 ppm fenhexamid or both, listed as fenhexamid); 12/12 with Botrytis cinerea [2] (Day 6, 20° C., 500 ppm natamycin, 500 ppm fenhexamid or both); 11/12 in the assay with Botrytis cinerea [2] (Day 6-7, 20° C., 250 ppm natamycin, 250 ppm fenhexamid or both); 11 in the assay on Botrytis cinerea [2] (Day 6-7, 20° C., 250 ppm natamycin, 250 ppm fenhexamid or both, listed as fenhexamid); 12/12 in the assay on Botrytis cinerea [2] (Day 7-8, 20° C., 500 ppm natamycin, 500 ppm fenhexamid or both). Also, the “Number of moulded strawberries/total number of 12 strawberries” value is 12/12 with Botrytis cinerea [2] (Day 8, 20° C., 250 ppm natamycin, 250 ppm fenhexamid or both); 12 in the assay on Botrytis cinerea [2] (Day 8, 20° C., 250 ppm natamycin, 250 ppm fenhexamid or both, listed as fenhexamid); 12/12 in the assay with Botrytis cinerea [2] (Day 9, 20° C., 500 ppm natamycin, 500 ppm fenhexamid or both). Moreover, the “Number of moulded strawberries of 12” value in the assay on Botrytis cinerea [2] (after 6 through 9 days of incubation, 500 ppm natamycin alone or 500 ppm fenhexamid alone) was determined as 12. The “Observed antifungal activity O (%)” value in the assay with Botrytis cinerea [2] (4 days, 500 ppm natamycin, 500 ppm fenhexamid or both) came to 22%; in the assay on Botrytis cinerea [2] (5 days, 500 ppm natamycin, 500 ppm fenhexamid or both), 25%; in the assay on Botrytis cinerea [2] (6 days, 500 ppm natamycin, 500 ppm fenhexamid or both), 0%; with Botrytis cinerea [2] (7 days, 500 ppm natamycin, 500 ppm fenhexamid or both), 0%; with Botrytis cinerea [2] (8 days, 250 ppm natamycin, 250 ppm fenhexamid or both) it was 7.5%; with Botrytis cinerea [2] (8 days, 500 ppm natamycin, 500 ppm fenhexamid or both), 0%. The “Observed antifungal activity O (%)” value in the assay with Botrytis cinerea [2] (9 days, 250 ppm natamycin, 250 ppm fenhexamid or both) worked out at 0%; in the assay with Botrytis cinerea [2] (9 days, 500 ppm natamycin, 500 ppm fenhexamid or both) it was 0%; with Botrytis cinerea [2] (10 days, 250 ppm natamycin, 250 ppm fenhexamid or both), 0%; with Botrytis cinerea [2] (10 days, 500 ppm natamycin, 500 ppm fenhexamid or both) it was 0%; in the assay on Botrytis cinerea [2] (11 days, 500 ppm natamycin, 500 ppm fenhexamid or both) it was 0%; in the assay with Botrytis cinerea [1] (13-17 days, 600 ppm fenhexamid or both) it was 0%. The “Observed antifungal activity O (%)” value in the assay with Botrytis cinerea [1] (18-22 days, 600 ppm fenhexamid or both) is on record as 0%; in the assay on Botrytis cinerea [1] (6 days, 600 ppm fenhexamid or both) it was 0%; with Botrytis cinerea [1] (8 days, 600 ppm fenhexamid or both), 0%; in the assay on Botrytis cinerea [1] (10 days, 600 ppm fenhexamid or both), 00%; in the assay with Botrytis cinerea [1] (11 days, 600 ppm fenhexamid or both), 0%; with Botrytis cinerea [1] (24 days, 600 ppm fenhexamid or both), 0%. The “Observed antifungal activity O (%)” value turned out to be 0% in the assay on Botrytis cinerea [1] (25 days, 600 ppm fenhexamid or both) and 0% in the assay with Botrytis cinerea [1] (26 days, 600 ppm fenhexamid or both).
